Reference: patent publication US20260070945A1, “MACROCYCLIC IMMUNOMODULATORS” (Bristol-Myers Squibb Company, priority 2022, published 2026)
pIC50: −log10 of the molar value. *1 amine or outer side, *2 acyl side, *3 side chain or, on linkers, in order; H or OH if unused. Where a SMILES comes first, the peptide text is derived from it. Bridges are numbered along the chain shown (N, C = ends). [ ]: non-standard residue; d: D form. The star is where a group is joined. ξ: configuration not given here. Trp(βS-Me) = C[C@@H](c1c[nH]c2ccccc12)[C@H](N)C(=O)O; Phe(3-CF3) = N[C@@H](Cc1cccc(C(F)(F)F)c1)C(=O)O; Phe(4-CONH2) = NC(=O)c1ccc(C[C@H](N)C(=O)O)cc1; Phe(4-COOH) = N[C@@H](Cc1ccc(C(=O)O)cc1)C(=O)O; Bip = N[C@@H](Cc1ccc(-c2ccccc2)cc1)C(=O)O; Phe(3-Me) = Cc1cccc(C[C@H](N)C(=O)O)c1; γGlu = O=C(O)[C@H](CCC(=O)[*:2])N[*:1]; NH(CH2)12COOH = O=C(O)CCCCCCCCCCCCN*; Val(3-OH) = CC(C)(O)[C@H](N)C(=O)O; aIle = CC[C@@H](C)[C@H](N)C(=O)O; 4Pal = N[C@@H](Cc1ccncc1)C(=O)O; Cha = N[C@@H](CC1CCCCC1)C(=O)O; Cit = NC(=O)NCCC[C@H](N)C(=O)O; Thr(3ξ) = CC(O)[C@H](N)C(=O)O; Carboxymethyl = O=C(O)C*; NMeA = CN[C@@H](C)C(=O)O; Orn = NCCC[C@H](N)C(=O)O; Aun = NCCCCCCCCCCC(=O)O; Dab = NCC[C@H](N)C(=O)O; AEEA = NCCOCCOCC(=O)O; Ac3c = NC1(C(=O)O)CC1

The molecules below were run against T1, PD-1/PD-L1 interaction (PE-labeled human PD-L1-Ig binding to Jurkat cell line over-expressing human PD-1) (Homo sapiens, UniProt Q15116) (assay: Jurkat-PD-1 Cell Binding High-Content Screening Assay (CBA)). Settings: Jurkat-hPD-1 cells, PE-labeled PD-L1-Ig 20 nM final; read-out: Jurkat HPD1 PDL1 IC50.
T1 construct: expressed in transfected cells; host or cells: Jurkat
Procedure, shortened: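 Read-out: high-content imaging of cell-bound PE fluorescence, with Hoechst 33342 nuclear counterstain after paraformaldehyde fixation. Before labeled ligand (20 nM final, 1 h) was added, compound sat on the cells for 2 h at 37 °C in DMEM/10% FCS.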

T1 sequence (Q15116 25-288): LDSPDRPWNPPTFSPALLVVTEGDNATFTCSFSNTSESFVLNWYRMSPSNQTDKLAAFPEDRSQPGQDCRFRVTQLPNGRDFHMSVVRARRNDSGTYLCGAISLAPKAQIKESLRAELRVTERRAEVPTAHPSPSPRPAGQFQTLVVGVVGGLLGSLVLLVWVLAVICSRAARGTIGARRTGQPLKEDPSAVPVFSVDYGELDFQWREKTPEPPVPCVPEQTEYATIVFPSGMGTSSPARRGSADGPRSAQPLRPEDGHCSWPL

Compound | pIC50
Cc1cccc(C[C@@H]2NC(=O)[C@H](CC(=O)O)NC(=O)[C@H](Cc3ccc(OCC(=O)O)cc3)NC(=O)[C@H]([C@@H](C)O)NC(=O)CSC[C@@H](C(=O)N[C@@H](CCN)C(=O)NCCOCCOCC(=O)NCCCCCCCCCCC(=O)O)NC(=O)[C@H](CC(N)=O)NC(=O)[C@H](C(C)C)NC(=O)[C@H](CC3CCCCC3)NC(=O)[C@H](CCN)NC(=O)[C@@H](CC(C)C)NC(=O)[C@H](C)N(C)C(=O)[C@H](Cc3ccc(OCC(=O)O)cc3)NC(=O)[C@H](Cc3ccc(-c4ccccc4)cc3)NC(=O)[C@H](Cc3ccc(OCC(=O)O)cc3)NC2=O)c1 [Example 1370] ({CH2CO}-TY(Carboxymethyl)D[Phe(3-Me)]Y(Carboxymethyl)[Bip]Y(Carboxymethyl)[NMeA][dL][Dab][Cha]VNC[Dab][AEEA][Aun]-OH; thioether N-14) | 7.86
Cc1cccc(C[C@@H]2NC(=O)[C@H](CC(=O)O)NC(=O)[C@H](Cc3ccc(C(=O)O)cc3)NC(=O)[C@H](Cc3ccc(OCC(=O)O)cc3)NC(=O)CSC[C@@H](C(=O)NCC(=O)NCCOCCOCC(=O)NCCCCCCCCCCC(=O)O)NC(=O)[C@H](CO)NC(=O)[C@H](C(C)C)NC(=O)[C@H](CC(C)C)NC(=O)[C@H](CC(N)=O)NC(=O)[C@@H](CC(C)C)NC(=O)[C@H](C)N(C)C(=O)[C@H](C(C)C)NC(=O)[C@H](Cc3ccc(-c4ccccc4)cc3)NC(=O)[C@H](CC(C)C)NC2=O)c1 [Example 1011] ({CH2CO}-Y(Carboxymethyl)[Phe(4-COOH)]D[Phe(3-Me)]L[Bip]V[NMeA][dL]NLVSCG[AEEA][Aun]-OH; thioether N-14) | 7.61
CC(C)C[C@@H]1NC(=O)[C@H](Cc2c[nH]c3ccccc23)NC(=O)[C@H](CC(=O)O)NC(=O)[C@H](Cc2ccncc2)NC(=O)[C@H](Cc2ccc(OCC(=O)O)cc2)NC(=O)CSC[C@@H](C(=O)N[C@@H](CCN)C(=O)NCCCCCCCCCCC(=O)O)NC(=O)[C@H]([C@@H](C)O)NC(=O)[C@H](C(C)C)NC(=O)[C@H](CC2CCCCC2)NC(=O)[C@H](CCN)NC(=O)[C@@H](CC(C)C)NC(=O)[C@H](C)N(C)C(=O)[C@H](C(C)C)NC(=O)[C@H](Cc2ccc(-c3ccccc3)cc2)NC1=O [Example 1329] ({CH2CO}-Y(Carboxymethyl)[4Pal]DWL[Bip]V[NMeA][dL][Dab][Cha]VTC[Dab][Aun]-OH; thioether N-14) | 7.82
CC[C@@H](C)[C@@H]1NC(=O)[C@H](Cc2ccc(-c3ccccc3)cc2)NC(=O)[C@H](C(C)C)NC(=O)[C@H](Cc2c[nH]c3ccccc23)NC(=O)[C@H](CC(=O)O)NC(=O)[C@H](Cc2ccc(O)cc2)NC(=O)[C@H](Cc2ccncc2)NC(=O)CSC[C@@H](C(=O)N[C@H](CC(N)=O)C(=O)NCCOCCOCC(=O)N[C@@H](CCC(=O)NCCOCCOCC(=O)N[C@@H](CCC(=O)NCCOCCOCC(=O)N[C@@H](CCCN)C(=O)NCCCCCCCCCCC(=O)O)C(=O)O)C(=O)O)NC(=O)[C@H](CO)NC(=O)[C@H](C(C)C)NC(=O)[C@H](CC2CCCCC2)NC(=O)[C@H](CC(N)=O)NC(=O)[C@@H](CC(C)C)NC(=O)[C@H](C)N(C)C1=O [Example 2020] ({CH2CO}-[4Pal]YDWV[Bip][aIle][NMeA][dL]N[Cha]VSC[dN][AEEA][γGlu][AEEA][γGlu][AEEA][Orn][Aun]-OH; thioether N-14) | 7.52
CC(C)C[C@@H]1NC(=O)[C@H]([C@@H](C)c2c[nH]c3ccccc23)NC(=O)[C@H](CC(=O)O)NC(=O)[C@H](Cc2ccc(OCC(=O)O)cc2)NC(=O)[C@H](Cc2ccc(OCC(=O)O)cc2)NC(=O)CSC[C@@H](C(=O)NC2(C(=O)NCCOCCOCC(=O)NCCCCCCCCCCC(=O)O)CC2)NC(=O)[C@H](CCCNC(=N)N)NC(=O)[C@H](C(C)C)NC(=O)[C@H](CC2CCCCC2)NC(=O)[C@H](CCN)NC(=O)[C@@H](CC(C)C)NC(=O)[C@H](C)N(C)C(=O)[C@H](C(C)C)NC(=O)[C@H](Cc2ccc(-c3ccccc3)cc2)NC1=O [Example 1271] ({CH2CO}-Y(Carboxymethyl)Y(Carboxymethyl)D[Trp(βS-Me)]L[Bip]V[NMeA][dL][Dab][Cha]VRC[Ac3c][AEEA][Aun]-OH; thioether N-14) | 7.41

The next lines start with the values.

pIC50 | Compound
6.04 | Cc1cccc(C[C@@H]2NC(=O)[C@H](CC(=O)O)NC(=O)[C@H](Cc3ccc(C(=O)O)cc3)NC(=O)[C@H](Cc3ccncc3)NC(=O)CSC[C@@H](C(=O)N[C@@H](CCN)C(=O)NCCOCCOCC(=O)NCCCCCCCCCCCCC(=O)O)NC(=O)[C@H](CO)NC(=O)[C@H](C(C)(C)O)NC(=O)[C@H](CC3CCCCC3)NC(=O)[C@H](CCN)NC(=O)[C@@H](CC(C)C)NC(=O)[C@H](C)N(C)C(=O)[C@H](Cc3ccc(OCC(=O)O)cc3)NC(=O)[C@H](Cc3ccc(-c4ccccc4)cc3)NC(=O)[C@H](Cc3ccc(OCC(=O)O)cc3)NC2=O)c1 [Example 1434] ({CH2CO}-[4Pal][Phe(4-COOH)]D[Phe(3-Me)]Y(Carboxymethyl)[Bip]Y(Carboxymethyl)[NMeA][dL][Dab][Cha][Val(3-OH)]SC[Dab][AEEA]-{NH(CH2)12COOH}; thioether N-14)
7.45 | CC(=O)NCCCC[C@@H]1NC(=O)[C@H](Cc2ccc(-c3ccccc3)cc2)NC(=O)[C@H](Cc2ccc(O)cc2)NC(=O)[C@H](Cc2cccc(C)c2)NC(=O)[C@H](CC(=O)O)NC(=O)[C@H](Cc2ccc(OCC(=O)O)cc2)NC(=O)[C@H](C(C)O)NC(=O)CSC[C@@H](C(=O)NCCOCCOCC(=O)NCCCCCCCCCCC(=O)O)NC(=O)[C@H](C(C)O)NC(=O)[C@H](C(C)C)NC(=O)[C@H](CC2CCCCC2)NC(=O)[C@H](CCN)NC(=O)[C@@H](CC(C)C)NC(=O)[C@H](C)N(C)C1=O (stereo partly drawn) [Example 2420] ({CH2CO}-[Thr(3ξ)]Y(Carboxymethyl)D[Phe(3-Me)]Y[Bip]K(Ac)[NMeA][dL][Dab][Cha]V[Thr(3ξ)]C[AEEA][Aun]-OH; thioether N-14)
7.90 | Cc1cccc(C[C@@H]2NC(=O)[C@H](CC(=O)O)NC(=O)[C@H](Cc3ccc(OCC(=O)O)cc3)NC(=O)[C@H](Cc3ccc(OCC(=O)O)cc3)NC(=O)CSC[C@@H](C(=O)N[C@@H](CCN)C(=O)NCCCCCCCCCCC(=O)O)NC(=O)[C@H](CCCN)NC(=O)[C@H](C(C)C)NC(=O)[C@H](CC3CCCCC3)NC(=O)[C@H](CCN)NC(=O)[C@@H](CC(C)C)NC(=O)[C@H](C)N(C)C(=O)[C@H](Cc3ccc(O)cc3)NC(=O)[C@H](Cc3ccc(-c4ccccc4)cc3)NC(=O)[C@H](C(C)C)NC2=O)c1 [Example 1254] ({CH2CO}-Y(Carboxymethyl)Y(Carboxymethyl)D[Phe(3-Me)]V[Bip]Y[NMeA][dL][Dab][Cha]V[Orn]C[Dab][Aun]-OH; thioether N-14)
7.60 | COC[C@@H]1NC(=O)CSC[C@@H](C(=O)N[C@@H](CCN)C(=O)NCCCCCCCCCCCCC(=O)O)NC(=O)[C@H](CO)NC(=O)[C@H](C(C)(C)O)NC(=O)[C@H](CC2CCCCC2)NC(=O)[C@H](CCN)NC(=O)[C@@H](CC(C)C)NC(=O)[C@H](C)N(C)C(=O)[C@H](CCCNC(N)=O)NC(=O)[C@H](Cc2ccc(-c3ccccc3)cc2)NC(=O)[C@H](Cc2ccc(C(=O)O)cc2)NC(=O)[C@H](Cc2cccc(C(F)(F)F)c2)NC(=O)[C@H](CC(=O)O)NC(=O)[C@H](Cc2ccc(OCC(=O)O)cc2)NC1=O [Example 1140] ({CH2CO}-S(Me)Y(Carboxymethyl)D[Phe(3-CF3)][Phe(4-COOH)][Bip][Cit][NMeA][dL][Dab][Cha][Val(3-OH)]SC[Dab]-{NH(CH2)12COOH}; thioether N-14)
8.31 | CC(=O)NCCCC[C@@H]1NC(=O)[C@H](Cc2ccc(-c3ccccc3)cc2)NC(=O)[C@H](CC(C)C)NC(=O)[C@H](Cc2cccc(C)c2)NC(=O)[C@H](CC(=O)O)NC(=O)[C@H](Cc2ccc(C(=O)O)cc2)NC(=O)[C@H](Cc2ccc(OCC(=O)O)cc2)NC(=O)CSC[C@@H](C(=O)NCCCCCCCCCCC(=O)O)NC(=O)[C@H](CCCNC(N)=O)NC(=O)[C@H](C(C)C)NC(=O)[C@H](CC2CCCCC2)NC(=O)[C@H](CCN)NC(=O)[C@@H](CC(C)C)NC(=O)[C@H](C)N(C)C1=O [Example 2247] ({CH2CO}-Y(Carboxymethyl)[Phe(4-COOH)]D[Phe(3-Me)]L[Bip]K(Ac)[NMeA][dL][Dab][Cha]V[Cit]C[Aun]-OH; thioether N-14)

Same assay, conditions: PE-labeled PD-L1-Ig 20 nM final, Jurkat-hPD-1 cells; read-out: Jurkat HPD1 PDL1 IC50

Compound | pIC50
CC(C)C[C@H]1NC(=O)[C@H](C)N(C)C(=O)[C@H](Cc2ccc(C(N)=O)cc2)NC(=O)[C@H](Cc2ccc(-c3ccccc3)cc2)NC(=O)[C@H](Cc2ccc(C(N)=O)cc2)NC(=O)[C@H](Cc2c[nH]c3ccccc23)NC(=O)[C@H](CC(=O)O)NC(=O)[C@H](Cc2ccc(OCC(=O)O)cc2)NC(=O)[C@H](C(C)O)NC(=O)CSC[C@@H](C(=O)N[C@@H](CCN)C(=O)NCCCCCCCCCCC(=O)O)NC(=O)[C@H](CO)NC(=O)[C@H](Cc2cnc[nH]2)NC(=O)[C@H](CC2CCCCC2)NC(=O)[C@H](CCN)NC1=O (stereo partly drawn) [Example 2429] ({CH2CO}-[Thr(3ξ)]Y(Carboxymethyl)DW[Phe(4-CONH2)][Bip][Phe(4-CONH2)][NMeA][dL][Dab][Cha]HSC[Dab][Aun]-OH; thioether N-14) | 6.66
CC(=O)NCCCC[C@@H]1NC(=O)[C@H](C(C)(C)O)NC(=O)[C@H](CC2CCCCC2)NC(=O)[C@H](CCN)NC(=O)[C@@H](CC(C)C)NC(=O)[C@H](C)N(C)C(=O)[C@H](CCC(N)=O)NC(=O)[C@H](Cc2ccc(-c3ccccc3)cc2)NC(=O)[C@H](CC(C)C)NC(=O)[C@H](Cc2c[nH]c3ccccc23)NC(=O)[C@H](CC(=O)O)NC(=O)[C@H](Cc2ccc(C(=O)O)cc2)NC(=O)[C@H](Cc2ccc(OCC(=O)O)cc2)NC(=O)CSC[C@@H](C(=O)NCCOCCOCC(=O)NCCCCCCCCCCC(=O)O)NC1=O [Example 2459] ({CH2CO}-Y(Carboxymethyl)[Phe(4-COOH)]DWL[Bip]Q[NMeA][dL][Dab][Cha][Val(3-OH)]K(Ac)C[AEEA][Aun]-OH; thioether N-14) | 7.35
